Measurements as given in patent publication US6114537A, “Process for scavenging thiols” (Apotex Inc., priority 1997, dated 2000).
Blank lines part the entries; values can stand above or below the compound they belong to.

Tests used:
[1] = Reaction with phenethyl mercaptan (thiol model for the H+/K+-ATPase); format: physicochemical; settings: in methanol
Description: The reactivity of the compounds in the process of the invention can be illustrated by means of their reaction with phenethyl mercaptan. This is generally illustrated in FIG. 1 of the accompanying drawings, with R of the thiol reagent representing a phenethyl group. In addition, based on prior art (Im et al., J. Biol. Chem., 1985, 260, 4591; Sturm et al., J. Org. Chem., 1987, 52, 4573; Lorentzon et al., Biochim., Biophys. Acta, 1985, 817, 25), phenethylmercaptan is useful as a model for the H^+ /K^+ -ATPase to examine the reactivity of compounds towards thiol group(s) of the enzyme. […] The compound of formula XI reacts with an additional mole of phenethyl mercaptan to produce a compound of formula XII which decomposes to give compounds of formula XIII and XIV.
A minimum of two moles of phenethyl mercaptan for 1 mole of substrate is required to effect the ring opening of 1,2,4-thiadiazolo[4,5-a]benzimidazoles to give the compound of formula XII. In general, the ring opening reaction is slow with two moles of phenethyl mercaptan. The reaction rate increases rapidly when a large excess of phenethyl mercaptan (for example, 25 fold) is used. […] This degradation of the trapped thiol intermediate to form the disulfide has also been observed in the chemical model for the H^+ /K^+ -ATPase (Lindberg et al., J. Med. Chem., 1986, 29, 1329). […]

[2] = test system: gastric acid secretion, isolated gastric glands; test: In vitro inhibition of gastric acid secretion in isolated mouse gastric glands (14C-aminopyrine accumulation); format: cell-based; settings: 100 μM
Method: Acid secretion is measured indirectly by the accumulation of the weak base ^14 C-aminopyrine in the isolated murine gastric glands of mouse. The assay is performed in polypropylene eppendorf tubes containing 0.5 mL of resuspended mouse gastric glands. In addition, tubes contain the tested drug, acid secretagogues (e.g. histamine, di-butyryl cyclic AMP (cAMP), carbachol) and ^14 C-aminopyrine. Tubes are incubated for 60 min. at 37° C. and continuously rotated. The reaction is stopped by centrifugation of the gland suspension for five min. at 1500 g. Supernatant is aspirated leaving the pellet containing intact gastric glands. The pellet is washed extensively and digested overnight in 1 mL of Protosol (Amersham). After neutralisation with acetic acid and addition of scintillation fluid, the radioactivity is counted in a beta-counter (Beckman). The amount of radioactivity trapped in the pellet corresponds directly with the amount of acid being secreted. Each experimental point is done in triplicate. In each experiment, energy independent consumption was estimated with 0.1 mM of dinitrophenol and basal acid secretion in the absence of acid stimulants. These values were then subtracted from corresponding results in order to calculate basal or secretagogue stimulated acid secretion. […] Each experiment is repeated a number of times and all results are expressed as a % of the maximum stimulation.

Solubility in water = format: physicochemical
Gastric Acid Secretions [3] = test: Effects on (meal-stimulated) gastric acid secretion in rats; format: in vivo, Sprague-Dawley rats
Method: Effects of compounds of Formula I on Gastric Acid Secretions in Rats
Fasted, adult (140-240 g), male, Sprague-Dawley rats were fasted for 24 h from food, but not water, and then treated by oral gavage with 1 to 1.5 mL total volume of compound of Formula I (300 μmmol/Kg) on different days. Two hours later, rats were anesthetized with a combination of pentobartital and thiopental, the abdomen was opened and the pylorus was ligated, and tracheal, gastric, and peripheral venous canulas were placed. The stomachs were lavaged with 10 mL 0.9% saline every 10 min. for 30 min and the gastric effluent collected in receptacles to determine the basal acid secretion. Acid output was determined in each gastric effluent sample by back-titration to pH 7.0 using 0.02M NaOH. Then, 5 mL of an 8% peptone meal (pH 5.5) was instilled into the stomachs, mixed, and drained after 10 min each time for 2 hours. Acid output was determined in each gastric effluent containing the peptone meal by back-titration to pH 5.5 using 0.02 M NaOH.

[4] = Acid stability in 6 molar hydrochloric acid; format: physicochemical; settings: room temperature
Method: Acid stability of 7-methoxy-3-[(4-methoxy-3,5-dimethyl-2-pyridyl)oxomethyl]-1,2,4-thiadiazolo[4,5-a]benzimidazole.
To examine acid stability of the captioned compound, the compound was dissolved in a minimum volume of methanol and the resulting solution was added to a 6 molar solution of hydrochloric acid.

Gastric Acid Secretions [5] = test: Effects on gastric acid secretion in rats, dose-dependent study (histamine-stimulated); format: in vivo, Sprague-Dawley rats; settings: 3, 30, 300 μmol/kg doses, oral, anesthetized rats; histamine 5 mg/kg i.v.
Method: Effects of compounds of Formula I on Gastric Acid Secretions in Rats (Dose-dependent study)
Fasted, adult (140-240 g), male, Sprague-Dawley rats were fasted for 24 h from food, but not water, and then treated by oral gavage with 1 to 1.5 mL total volume of 4 different doses (0.3, 3, 30, and 300 μmol/kg) of each compound on different days. Two hours later, rats were anesthetized with a combination of pentobartital and thiopental, the abdomen was opened and the pylorus was ligated, and tracheal, gastric, and peripheral venous canulas were placed. The stomachs were lavaged with 10 mL 0.9% saline every 10 min. for 30 min and the gastric effluent collected in receptacles. Acid output was determined in each gastric effluent sample by back-titration to pH 7.0 using 0.02M NaOH. Then, 5 mL of an […] meal (pH 5.5) was instilled into the stomachs, mixed, and drained after 10 min each time for 2 hours. Acid output was determined in each gastric effluent sample by back-titration to pH 7.0 using 0.02 M NaOH. After measuring basal acid output for at least 30 minutes, acid output was then measured during a 2 h intravenous infusion of histamine (5 mg/kg).

time to complete reaction with phenethyl mercaptan [1]: ≤ 1 min
Structure (SMILES): CN(C)c1nsc2nc3ccccc3n12 [Me2 N, 3-(dimethylamino)-1,2,4-thiadiazolo[4,5-a]benzimidazole]

Structure (SMILES): CN1CCN(c2nsc3nc4ccccc4n23)CC1.Cl.Cl [3-(4-methyl-1-piperazinyl)-1,2,4-thiadiazolo [4,5-a]benzimidazole dihydrochloride]
inhibition of cAMP stimulated acid secretion ([2]; cAMP stimulated): completely inhibited
inhibition of histamine stimulated acid secretion ([2]; histamine stimulated): completely inhibited

solubility in water (Solubility in water): limited solubility in water
recovery after stirring in acid ([4]; 48 hours): totally recovered
acid stability [4]: very stable in acid
Structure (SMILES): COc1ccc2c(c1)nc1snc(C(=O)c3ncc(C)c(OC)c3C)n12 [7-methoxy-3-[(4-methoxy-3,5-dimethyl-2-pyridyl)oxomethyl]-1,2,4-thiadiazolo[4,5-a]benzimidazole]
inhibition of meal-stimulated acid secretion (Gastric Acid Secretions [3]; 300 μmmol/Kg, rats, oral): significant (p<0.05) inhibition
level of acid output, peptone stimulated (Gastric Acid Secretions [3]; after 1 h, oral gavage, rats, 300 μmmol/Kg, vehicle 160 numol/30 min): 20 μmmol/30 min
suppression of gastric acid secretion in animal model (Gastric Acid Secretions [3]; animal model): active in the suppression of gastric acid secretion
inhibition of histamine-stimulated acid secretion (Gastric Acid Secretions [5]): significant (p<0.05) inhibition

time to complete reaction with phenethyl mercaptan [1]: ≤ 1 min
Structure (SMILES): COc1nsc2nc3ccccc3n12 [MeO, 3-methoxy-1,2,4-thiadiazolo[4,5-a]benzimidazole]
